PubChem BioAssay (NCI)
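Assay format: 96-well plates, 48-hour exposure. At the TGI there is no net growth.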

How the values were obtained:
Assay in all cases: growth of human tumour cells (NCI), 48 h
[1] = tested on: 786-0 renal
[2] = tested on: A498 renal
[3] = tested on: A549 NSCLC
[4] = tested on: ACHN renal
[5] = tested on: COLO 205 colon
[6] = tested on: DU-145 prostate
[7] = tested on: EKVX NSCLC
[8] = tested on: HCC-2998 colon
[9] = tested on: HCT-116 colon
[10] = tested on: HCT-15 colon
[11] = tested on: HL-60(TB) leukemia
[12] = tested on: HOP-62 NSCLC
[13] = tested on: HOP-92 NSCLC
[14] = tested on: HS 578T breast
[15] = tested on: HT29 colon
[16] = tested on: IGROV1 ovarian
[17] = tested on: K-562 leukemia
[18] = tested on: KM12 colon
[19] = tested on: LOX IMVI melanoma
[20] = tested on: M14 melanoma
[21] = tested on: MALME-3M melanoma
[22] = tested on: MCF7 breast
[23] = tested on: MDA-MB-231 breast
[24] = tested on: MDA-MB-435
[25] = tested on: MDA-N
[26] = tested on: MOLT-4 leukemia
[27] = tested on: NCI-H226 lung
[28] = tested on: NCI-H23 lung
[29] = tested on: NCI-H460 lung
[30] = tested on: NCI-H522 lung
[31] = tested on: NCI/ADR-RES ovarian
[32] = tested on: OVCAR-3 ovarian
[33] = tested on: OVCAR-4 ovarian
[34] = tested on: OVCAR-5 ovarian
[35] = tested on: OVCAR-8 ovarian
[36] = tested on: PC-3 prostate
[37] = tested on: RPMI-8226 leukemia
[38] = tested on: RXF 393 renal
[39] = tested on: SF-268 CNS
[40] = tested on: SF-295 CNS
[41] = tested on: SF-539 CNS
[42] = tested on: SK-MEL-2 melanoma
[43] = tested on: SK-MEL-28 melanoma
[44] = tested on: SK-MEL-5 melanoma
[45] = tested on: SK-OV-3 ovarian
[46] = tested on: SN12C renal
[47] = tested on: SNB-19 CNS
[48] = tested on: SR leukemia
[49] = tested on: SW-620 colon
[50] = tested on: T-47D breast
[51] = tested on: U251 CNS
[52] = tested on: UACC-257 melanoma
[53] = tested on: UACC-62 melanoma
[54] = tested on: UO-31 renal
[55] = tested on: BT-549 breast
[56] = tested on: CAKI-1 renal
[57] = tested on: CCRF-CEM leukemia
[58] = tested on: TK-10 renal
[59] = tested on: SNB-75 CNS

Measured: TGI

C=C[C@]1(O)CCC[C@]2(C)C(=O)CCC12C (some centres undefined)
not listed: [55] | [56] | [57] | [58] | [59]
> 100 µM: all other assays above

CC1(C)Oc2ccc3c(=O)c(-c4ccccc4)c(-c4ccccc4)oc3c2C1C(=O)O (centres undefined)
not listed: [4] | [11] | [13] | [18] | [19] | [29] | [37] | [43] | [47] | [48] | [49] | [54] | [59]
> 100 µM: all other assays above

Nc1ccc(Oc2ccc(C3(c4ccc(Oc5ccc(N)cc5)cc4)C4CC5C6CC7CC5C3C(C7)C6C4)cc2)cc1
49 µM: [13]
> 87.8 µM: [18]
82.9 µM: [24]
> 95.3 µM: [28]
> 70 µM: [51]
18.9 µM: [2]
> 77.9 µM: [8]
> 66.4 µM: [19]
22.6 µM: [38]
77 µM: [23]
98.5 µM: [46]
not listed: [45] | [50]
> 100 µM: all other assays above

O=c1c(-c2c(-c3ccccc3)oc3ccc(Cl)cc3c2=O)c(-c2ccccc2)oc2ccc(Cl)cc12
> 79.4 µM: [40]
> 92.3 µM: [39]
> 62.2 µM: [59]
0.606 µM: [11]
> 83.7 µM: [23]
> 89.4 µM: [45]
> 61.4 µM: [12]
> 95 µM: [13]
not listed: [54] | [55]
> 100 µM: all other assays above
